SMILES strings stand for the structures.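 96-well plates; 48 h exposure; 5 concentrations. Endpoints by linear interpolation between flanking doses. Not reached: highest tested concentration assigned. Abbreviation: GI50, concentration required for 50% inhibition of growth. TGI denotes the concentration required for complete inhibition of growth.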

Common to all, as to experiment: NCI tumour cell line growth inhibition, 48 h
Assay [1] relates to MOLT-4 leukemia.
The test system of assay [2] is BT-549 breast.
Assay [3] deals with SK-MEL-28 melanoma.
Assay [4] relates to NCI-H23 lung.
Assay [5] relates to A549 NSCLC.
Assay [6] concerns LOX IMVI melanoma.
Assay [7] relates to SF-268 CNS.
For assay [8], the system named is 786-0 renal.
For assay [9], the system named is HCC-2998 colon.
Assay [10] deals with A498 renal.

Regarding `CC(=O)O[C@H]1C(=O)[C@@]2(C)C([C@H](OC(=O)c3ccccc3)[C@]3(O)C[C@H](OC(=O)[C@H](O)[C@@H](NC(=O)c4ccccc4)c4ccccc4)C(C)=C1C3(C)C)[C@]1(OC(C)=O)CO[C@@H]1C[C@@H]2O` (some centres undefined), the GI50 in assay [1] was 0.0152 µM; in [2], 0.0212 µM; in assay [3], 0.0139 µM; in [4], 0.0125 µM; in assay [5] it was under 0.005 µM; in assay [6], 0.00513 µM. For the same compound, the GI50 in assay [7] is 0.021 µM; in assay [8], 0.0465 µM; in assay [9], 0.00868 µM; in assay [10], 0.0161 µM. Moreover, the TGI is over 37.2 µM in [1]; over 50 µM in assay [2]; over 50 µM in assay [3]; over 50 µM in assay [4]; over 50 µM in [5]; over 50 µM in assay [6]. Also, the TGI in [7], in [8] and in assay [10] was over 50 µM in each case.

As for `Cn1nccc1Nc1nccc(-c2ccn([C@H](CO)c3ccc(Cl)c(F)c3)c(=O)c2)n1`, the GI50 is 24.4 µM in assay [1]; 19.7 µM in assay [2]; 0.104 µM in assay [3]; 4.47 µM in assay [4]; 36 µM in [5]; 3.72 µM in [6]. The GI50 in [7] was 38.1 µM; in assay [8] it was 31.4 µM; in assay [9], 0.588 µM; in assay [10], 1.07 µM. Further, the TGI in assay [1] is over 92.2 µM; in assay [2], 61 µM; in assay [3], over 100 µM; in assay [4] it was over 100 µM; in assay [5] it was over 100 µM; in [6], 28.1 µM. In addition, the TGI was over 100 µM in [7], over 100 µM in [8], 23.7 µM in [9] and 15.3 µM in assay [10].

Take `CN(C)CCCC1(c2ccc(F)cc2)OCc2cc(-c3cccc4[nH]ccc34)ccc21` (centres undefined): the GI50 in [1] is 1.49 µM; in assay [2], 1.87 µM; in assay [3], 1.83 µM; in assay [4], 1.83 µM; in assay [5], 1.6 µM; in [6], 1.71 µM. Besides, the GI50 in assay [7] was 1.58 µM; in [8] it was 1.63 µM; in assay [9], 1.54 µM; in assay [10], 1.56 µM. For the same compound, the TGI in [1] came out at 3.22 µM; in assay [2] it was 3.54 µM; in [3], 3.27 µM; in [4], 3.62 µM; in assay [5] it was 3.07 µM; in assay [6], 3.2 µM. Moreover, the TGI in [7] was 3.03 µM; in assay [8], 3.24 µM; in assay [9] it was 2.94 µM; in assay [10], 2.96 µM.

As for `COc1cc2c(N3CCN(C(=O)Nc4ccc(OC(C)C)cc4)CC3)ncnc2cc1OCCCN1CCCCC1`, the GI50 in assay [1] is 12.8 µM; in assay [2], 13.4 µM; in assay [3], 15.1 µM; in [4] it was 14.6 µM; in [5], 17.1 µM; in assay [6] it was 8.15 µM. The GI50 is 16.2 µM in [7], 17.6 µM in [8], 19.6 µM in [9] and 15 µM in assay [10]. Besides, the TGI is 61.2 µM in assay [1]; 29.3 µM in assay [2]; 30.9 µM in assay [3]; 39.1 µM in assay [4]; over 93.7 µM in assay [5]; 23.9 µM in assay [6]. Further, the TGI turned out to be 38.6 µM in assay [7], 37.8 µM in assay [8], 44.3 µM in assay [9] and 40.7 µM in assay [10].

Regarding `COCC([C@@H](O)C(O)C(=O)NCC[C@@H](C)c1nc(/C=C/CC2OC3(C[C@H](O)C2C)OC(C(C[C@H](O)C(C)[C@H](O)C(C)/C=C(C)/C(C)=C/C=C/C(C)=C/C#N)OC)[C@@H](OP(=O)(O)O)C3(C)C)co1)N(C)C` (some centres undefined), the TGI in assay [1] was determined as 0.00248 µM; in assay [2], 0.000312 µM; in assay [3], 0.000323 µM; in [4] it was 0.0021 µM; in assay [5] it was 0.00147 µM; in [6], 0.000561 µM. Besides, the TGI in assay [7] stood at 0.000344 µM; in assay [8], 0.000314 µM; in assay [9] it was 0.000325 µM; in assay [10] it was 0.00333 µM.

On to `CC1(C)OC[C@@H]([C@@]2(CO[Si](c3ccccc3)(c3ccccc3)C(C)(C)C)CC=CC(=O)O2)O1`, for which the GI50 in assay [1] was 8.94 µM; in assay [2] it was 4.46 µM; in assay [3], 16.7 µM; in assay [4], 10.2 µM; in [5], 5.27 µM; in [6], 3.93 µM. The GI50 was 10.5 µM in assay [7], 8.96 µM in [8], 13.7 µM in assay [9] and 17.1 µM in assay [10]. Moreover, the TGI in [1] is over 100 µM; in assay [2], 19 µM; in [3] it was 48.3 µM; in [4], 40.2 µM; in [5], over 100 µM; in [6], 21 µM. Also, the TGI in [7] stood at 45.8 µM; in assay [8], 32.8 µM; in assay [9], 28.9 µM; in [10] it was 34.2 µM.
